These results are taken from US20230120205A1, “NERVE CELL DEGENERATION INHIBITOR” (KYOTO UNIVERSITY, priority 2020, published 2023).

The subject of data set [1] is ALS7 (C9orf72) cell-derived motor neurons. Put plainly: Cytotoxicity: intracellular ATP level (CellTiter-Glo). The format is cell-based, human. As for the experimental part:
In order to examine the cytotoxicity of the test compound, the intracellular ATP level was measured.
ALS7 (C9orf72) cells were seeded on an assay plate in the same procedure as in Experimental Example 1. Four days after seeding, the assay medium containing no Y-27632 was added to the plate, and the cells were cultured until seven days after seeding, and the assay medium (Retinoic Acid, Doxycycline, SAG, Y-27632-free) containing the test compound at a predetermined concentration was added to the plate by medium exchange. 24 hr or 48 hr after addition of the test compound, the medium was removed, and CellTiter-Glo Luminescent Cell Viability Assay (Promega, G7570) was performed.
The method for detecting the cytotoxicity of the test compound is as follows.
As a negative control, the cells cultured in the assay medium supplemented with DMSO instead of the test compound were used.
The degree of the effect on the intracellular ATP level in the test compound-treated cells was defined as the ATP level of the test compound compared with the negative control, which was calculated by the following formula.
ATP level of the test compound compared to the negative control=X/C×100
X: ATP level in the test compound group, C: ATP level in the DMSO group
When the intracellular ATP level was less than 0.5 times or more than 1.5 times the intracellular ATP level in the negative control, it was judged to be cytotoxic.
A general note: In ATP-based viability assays light output follows the ATP content of the culture.

Data set [2] has the same test system. Put plainly: RNA foci inhibitory activity (FISH with Cy3 probe, high-content analysis). The format is cell-based, human. The conditions noted are these: one day after addition, vs DMSO. From the text: Using ALS7 (C9orf72) cell line described in K. Imamura et al, Science Translational Medicine 2017, 9, eaaf3962, the effect of the compound used in the present invention on RNA foci was examined. The cell line is stable cell line prepared by introducing the tetracycline-induced Lhx3, Ngn2 and Isl1 genes into iPS cell lines established from a familial ALS patient with abnormal expansion of the G4C2 repeat of the C9orf72 gene. Therefore, ALS7 (C9orf72) cell is an ALS cell model that rapidly (within about 7 days) differentiates into motor neurons when tetracycline or a derivative thereof is added to the medium, and after differentiation, spontaneously goes on to cell death (see the above documents). […] ALS7 (C9orf72) cells were cultured on feeder cells (mitomycin-treated SNL cells) using an iPS cell maintenance medium consisting of Primate ES Cell medium (ReproCell, […]), 4 ng/ml hbFGF (Wako, 060-04543), 50 μg/ml G418 (Nacalai, 09380-86) and Penicillin-Streptomycin (Thermo Fisher Scientific, 15140-122). The method for seeding ALS7 (C9orf72) cells on an assay plate is as follows. Matrigel (BD Falcon, D2650) was diluted 20-fold with an assay medium consisting of DMEM/F-12 (1:1) (Thermo Fisher Scientific, 11330-057), N2 supplement (Thermo Fisher Scientific, 17502-048), Penicillin-Streptomycin (Thermo Fisher Scientific, 15140-122), 10 ng/ml recombinant human BDNF (PeproTech, 450-02), 10 ng/ml recombinant human GDNF (PeproTech, 450-10), 10 ng/ml recombinant human NT-3 (PeproTech, 450-03), 1 μM Retinoic acid (Sigma, R2625), 1 μg/ml Doxycycline (Clontech, 631311), 1 μM SAG (Enzo life sciences, ALX-270-426-M001) and 10 μ[…] (Wako, 253-00513), and then a 384-well plate (CellCarrier-384 Ultra, PerkinElmer, 6057300) was coated with the diluted solution. The ALS7 (C9orf72) cells were then suspended in the assay medium, and seeded on the matrigel-coated assay plate at 1×10^4 cells per well. The fluorescent staining method of RNA foci in motor neurons differentiated from ALS7 (C9orf72) cells is as follows. For the ALS7 (C9orf72) cells seeded on the assay plate according to the method described in the previous section, the assay medium containing no Y-27632 was added to the plate four days after seeding, and the cells were cultured. Seven days after seeding, the assay medium (Retinoic Acid, Doxycycline, SAG, Y-27632-free) containing the test compound at a predetermined concentration was added to the plate by medium exchange, and one day after addition of the test compound, PFA (Wako, 163-20145) was added to the plate to fix the cells. After washing with PBS (Wako, 045-29795) was repeated three times, ice-cold methanol (Wako, 131-01826) was added to the plate, and the plate was allowed to stand for 10 minutes at room temperature. DNA probe [[NT] ID NO:1), SIGMA genosys, custom synthesis] was denatured at 80° C. for 75 sec, prepared to 2 μg/μL in a hybri buffer consisting of 50% formamide (Wako, 066-02301), 2×SSC (Nippon Gene, 319-90015), 50 mM sodium phosphate (TEKNOVA, […]), 10% Dextran sulfate (SIGMA, […]), 0.1 mg/mL yeast tRNA ([…], 15401029) and RNase free water (QIAGEN, 129112), and added to the plate, and the plate was allowed to stand at 37° C. for 16 to 24 hrs to bind the probe to the RNA foci. A wash buffer consisting of 50% formamide, 1×SSC and RNase free water was added to the plate, and the plate was allowed to stand at 37° C. for 30 minutes, followed by washing with PBS. Hoechst (invitrogen, H3569) diluted 5000-fold with by PBS was added to the plate, and the plate was allowed to stand for 20 minutes at room temperature to stain the cell nuclei, followed by washing with PBS. The RNA foci in the cell nuclei were detected by analyzing the above treated plate (measuring Cy3 fluorescence) with a high-content analyzer. The high-content analyzer used was Opera Phenix from PerkinElmer. […] The method for detecting the activity of the test compound is as follows.

Regarding `NS(=O)(=O)Cc1cccc(Nc2ncnc(-c3ccccc3OCc3ccccc3)n2)c1.O=C(O)C(F)(F)F` [Compound No. 4a, 1-[3-({4-[2-(benzyloxy)phenyl]-1,3,5-triazin-2-yl}amino)phenyl]methanesulfonamide trifluoroacetate], the “ATP level % compared to negative control” value turned out to be 113% in data set [1] (After 24 hr, 1 μM); 128% in data set [1] (After 24 hr, 3 μM); 140% in data set [1] (After 24 hr, 10 μM); 80% in data set [1] (After 48 hr, 1 μM); 101% in data set [1] (After 48 hr, 3 μM); 115% in data set [1] (After 48 hr, 10 μM). Besides, the “RNA foci inhibitory activity %” value is 50% in data set [2] (1 μM test compound), 45% in data set [2] (3 μM test compound) and 45% in data set [2] (10 μM test compound).

Turning to `CCOC(=O)N=S(C)(=O)Cc1cccc(Nc2ncnc(-c3cccc4c3OCC4)n2)c1` (stereo not drawn) [Compound No. 7, ethyl {[(3-{[4-(2,3-dihydro-1-benzofuran-7-yl)-1,3,5-triazin-2-yl]amino}phenyl)methyl](methyl)oxo-λ^6-sulfanylidene}carbamate], the “ATP level % compared to negative control” value came to 89% in data set [1] (After 24 hr, 1 μM); 105% in data set [1] (After 24 hr, 3 μM); 126% in data set [1] (After 24 hr, 10 μM); 86% in data set [1] (After 48 hr, 1 μM); 87% in data set [1] (After 48 hr, 3 μM); 112% in data set [1] (After 48 hr, 10 μM). Besides, the “RNA foci inhibitory activity %” value was 47% in data set [2] (1 μM test compound), 55% in data set [2] (3 μM test compound) and 43% in data set [2] (10 μM test compound).

In the case of `CCOC(=O)N=S(C)(=O)Cc1cccc(Nc2ncnc(-c3cccc4c3OCCO4)n2)c1` (stereo not drawn) [Compound No. 6, ethyl {[(3-{[4-(2,3-dihydro-1,4-benzodioxin-5-yl)-1,3,5-triazin-2-yl]amino}phenyl)methyl](methyl)oxo-λ^6-sulfanylidene}carbamate], the “ATP level % compared to negative control” value was 89% in data set [1] (After 24 hr, 1 μM); 107% in data set [1] (After 24 hr, 3 μM); 130% in data set [1] (After 24 hr, 10 μM); 77% in data set [1] (After 48 hr, 1 μM); 71% in data set [1] (After 48 hr, 3 μM); 124% in data set [1] (After 48 hr, 10 μM). In addition, the figures for the “RNA foci inhibitory activity %” value in data set [2] (1 μM test compound), in data set [2] (3 μM test compound) and in data set [2] (10 μM test compound) were 62%, 48% and 48%, respectively.

With `CS(=N)(=O)Cc1cccc(Nc2ncnc(-c3ccccc3OCc3ccc(Cl)c(Cl)c3)n2)c1` (stereo not drawn) [Compound No. 5, 4-{2-[(3,4-dichlorophenyl)methoxy]phenyl}-N-{3-[(S-methanesulfonimidoyl)methyl]phenyl}-1,3,5-triazin-2-amine], the “ATP level % compared to negative control” value was 98% in data set [1] (After 24 hr, 1 μM); 118% in data set [1] (After 24 hr, 3 μM); 131% in data set [1] (After 24 hr, 10 μM); 83% in data set [1] (After 48 hr, 1 μM); 94% in data set [1] (After 48 hr, 3 μM); 108% in data set [1] (After 48 hr, 10 μM). The figures for the “RNA foci inhibitory activity %” value in data set [2] (1 μM test compound), in data set [2] (3 μM test compound) and in data set [2] (10 μM test compound) were 61%, 44% and 50%, respectively.

On to `COc1cc(Cl)ccc1-c1ncnc(Nc2cccc(CS(N)(=O)=O)c2)n1` [Compound No. 3, 1-(3-{[4-(4-chloro-2-methoxyphenyl)-1,3,5-triazin-2-yl]amino}phenyl)methanesulfonamide], for which the “ATP level % compared to negative control” value in data set [1] (After 24 hr, 1 μM) is listed as 104%; in data set [1] (After 24 hr, 3 μM), 97%; in data set [1] (After 24 hr, 10 μM) it was 106%; in data set [1] (After 48 hr, 1 μM), 105%; in data set [1] (After 48 hr, 3 μM), 87%; in data set [1] (After 48 hr, 10 μM) it was 69%. The “RNA foci inhibitory activity %” value worked out at 16% in data set [2] (1 μM test compound), 55% in data set [2] (3 μM test compound) and 51% in data set [2] (10 μM test compound).

Regarding `NS(=O)(=O)Cc1cccc(Nc2ncnc(-c3ccccc3OCc3ccccc3)n2)c1` [Compound No. 4b, 1-[3-({4-[2-(benzyloxy)phenyl]-1,3,5-triazin-2-yl}amino)phenyl]methanesulfonamide], the “ATP level % compared to negative control” value in data set [1] (After 24 hr, 1 μM) came out at 105%; in data set [1] (After 24 hr, 3 μM), 121%; in data set [1] (After 24 hr, 10 μM), 134%; in data set [1] (After 48 hr, 1 μM) it was 73%; in data set [1] (After 48 hr, 3 μM), 97%; in data set [1] (After 48 hr, 10 μM), 102%. The “RNA foci inhibitory activity %” value in data set [2] (1 μM test compound) came to 52%; in data set [2] (3 μM test compound) it was 41%; in data set [2] (10 μM test compound), 47%.

For the molecule `COc1ccccc1-c1ncnc(Nc2cccc(CS(N)(=O)=O)c2)n1` [Compound No. 2, 1-(3-{[4-(2-methoxyphenyl)-1,3,5-triazin-2-yl]amino}phenyl)methanesulfonamide], the “ATP level % compared to negative control” value in data set [1] (After 24 hr, 1 μM) is 98%; in data set [1] (After 24 hr, 3 μM), 89%; in data set [1] (After 24 hr, 10 μM), 101%; in data set [1] (After 48 hr, 1 μM), 99%; in data set [1] (After 48 hr, 3 μM), 74%; in data set [1] (After 48 hr, 10 μM) it was 53%. In addition, the “RNA foci inhibitory activity %” value in data set [2] (1 μM test compound) is listed as 20%; in data set [2] (3 μM test compound) it was 49%; in data set [2] (10 μM test compound), 55%.

Turning to `COc1cc(F)ccc1-c1ncnc(Nc2cccc(CS(C)(=N)=O)c2)n1` (stereo not drawn) [Compound No. 1, 4-(4-fluoro-2-methoxyphenyl)-N-{3-[(S-methanesulfonimidoyl)methyl]phenyl}-1,3,5-triazin-2-amine], the “ATP level % compared to negative control” value in data set [1] (After 24 hr, 1 μM) came out at 92%; in data set [1] (After 24 hr, 3 μM) it was 107%; in data set [1] (After 24 hr, 10 μM), 134%; in data set [1] (After 48 hr, 1 μM), 91%; in data set [1] (After 48 hr, 3 μM), 89%; in data set [1] (After 48 hr, 10 μM), 122%. Further, the “RNA foci inhibitory activity %” value is reported as 48% in data set [2] (1 μM test compound), 58% in data set [2] (3 μM test compound) and 46% in data set [2] (10 μM test compound).
